In patent US9802937B2, “Substituted pyrazolo{4,3-D}pyrimidines as kinase inhibitors” (ORIGENIS GMBH, priority 2011, dated 2017) one finds Ki and IC50 data, which are given here for 27 molecules.

For test [1], the target named is T1, SYK kinase (Homo sapiens, UniProt P43405).
T1 construct: purchased Invitrogen, Carlsbad
In words: SYK Assay (OMNIA KINASE ASSAY, SOX peptide fluorescence). It is filed as biochemical. To be noted: apparent Ki calculated from the IC50 using the Cheng-Prusoff equation; 1 mM ATP, 30° C.; read-out: SYK Activities: Ki. The gist of the method:
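Continuous Omnia assay: SYK phosphorylation of SOX-labelled Tyr 7 peptide (10 µM) with 1 mM ATP and 0.2 mM DTT at 30 °C. Fluorescence (ex 360/em 485 nm) read every 30 s for 30 min. Reaction velocity versus inhibitor concentration gives IC50, converted to apparent Ki by Cheng-Prusoff.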

Test [2] addresses MYLK (Homo sapiens, UniProt Q15746). In words: MYLK Assay (LanthaScreen Eu Kinase Binding Assay). The settings on record: 5 nM MYLK, 30 nM tracer 236, RT 1 h; read-out: MYLK Activities: IC50. The method, then: In the assay LanthaScreen™ Eu Kinase Binding Assay by Invitrogen Corporation (Carlsbad) the effect of invention of a compound on the phosphorylation is determined by measurement of fluorescence intensity emission ratio based on the binding and displacement of a proprietary, Alexa Fluor® 647-labeled, ATP-competitive kinase inhibitor scaffold (kinase tracer) to the kinase of interest as described above.
To the wells of an 384 well small volume plate (Greiner, Frickenhausen) are added (i) the compound under test in 5% is DMSO/distilled water (5 μl), (ii) 5 μl of the kinase antibody mixture resulting in a final concentration 5 nM MYLK, 2 nM EU-Anti-GST antibody in 1× kinase buffer A. The reaction was started with addition of (iii) 5 μl resulting in a final concentration of 30 nM tracer 236. The assay plate was incubated at RT for 1 h and fluorescence intensity readings were collected using a TECAN M1000 at two wavelengths of λex 340/λem 615 nm and λex 340/λem 665 nm with a delay time of 100 μs and an integration time of 200 μs after 60 minutes. The emission ratio was calculated by division of the acceptor/tracer emission ([…]) by the antibody/donor emission ([…]). The inhibitor concentration was plotted versus the emission ratio to determine the IC50 using XLFit 5.0 (IDBS, Guildford) to fit to a sigmoidal dose response curve with a variable slope.
A general note: In TR-FRET formats the signal depends on donor and acceptor labels being close together.

Test [3] addresses LRRK2 (Homo sapiens, UniProt Q5S007). In words: LRRK2-LRRK2 G2019S-Assay (LanthaScreen Eu Kinase Binding Assay). The settings on record: 5 nM LRRK2 or their mutants, 10 nM tracer 236, RT 1 h; read-out: LRRK2 Activities: IC50. The gist of the method: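 TR-FRET tracer-displacement binding assay with 5 nM LRRK2 or mutant, 2 nM Eu-anti-GST antibody and 10 nM tracer 236 in kinase buffer A. Incubated 1 h at RT; 665/615 nm emission ratio read (ex 340 nm). IC50 from variable-slope sigmoidal fit.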

Each structure is given as a SMILES string.

LRRK2, sequence (Q5S007 970-2527 limits assumed): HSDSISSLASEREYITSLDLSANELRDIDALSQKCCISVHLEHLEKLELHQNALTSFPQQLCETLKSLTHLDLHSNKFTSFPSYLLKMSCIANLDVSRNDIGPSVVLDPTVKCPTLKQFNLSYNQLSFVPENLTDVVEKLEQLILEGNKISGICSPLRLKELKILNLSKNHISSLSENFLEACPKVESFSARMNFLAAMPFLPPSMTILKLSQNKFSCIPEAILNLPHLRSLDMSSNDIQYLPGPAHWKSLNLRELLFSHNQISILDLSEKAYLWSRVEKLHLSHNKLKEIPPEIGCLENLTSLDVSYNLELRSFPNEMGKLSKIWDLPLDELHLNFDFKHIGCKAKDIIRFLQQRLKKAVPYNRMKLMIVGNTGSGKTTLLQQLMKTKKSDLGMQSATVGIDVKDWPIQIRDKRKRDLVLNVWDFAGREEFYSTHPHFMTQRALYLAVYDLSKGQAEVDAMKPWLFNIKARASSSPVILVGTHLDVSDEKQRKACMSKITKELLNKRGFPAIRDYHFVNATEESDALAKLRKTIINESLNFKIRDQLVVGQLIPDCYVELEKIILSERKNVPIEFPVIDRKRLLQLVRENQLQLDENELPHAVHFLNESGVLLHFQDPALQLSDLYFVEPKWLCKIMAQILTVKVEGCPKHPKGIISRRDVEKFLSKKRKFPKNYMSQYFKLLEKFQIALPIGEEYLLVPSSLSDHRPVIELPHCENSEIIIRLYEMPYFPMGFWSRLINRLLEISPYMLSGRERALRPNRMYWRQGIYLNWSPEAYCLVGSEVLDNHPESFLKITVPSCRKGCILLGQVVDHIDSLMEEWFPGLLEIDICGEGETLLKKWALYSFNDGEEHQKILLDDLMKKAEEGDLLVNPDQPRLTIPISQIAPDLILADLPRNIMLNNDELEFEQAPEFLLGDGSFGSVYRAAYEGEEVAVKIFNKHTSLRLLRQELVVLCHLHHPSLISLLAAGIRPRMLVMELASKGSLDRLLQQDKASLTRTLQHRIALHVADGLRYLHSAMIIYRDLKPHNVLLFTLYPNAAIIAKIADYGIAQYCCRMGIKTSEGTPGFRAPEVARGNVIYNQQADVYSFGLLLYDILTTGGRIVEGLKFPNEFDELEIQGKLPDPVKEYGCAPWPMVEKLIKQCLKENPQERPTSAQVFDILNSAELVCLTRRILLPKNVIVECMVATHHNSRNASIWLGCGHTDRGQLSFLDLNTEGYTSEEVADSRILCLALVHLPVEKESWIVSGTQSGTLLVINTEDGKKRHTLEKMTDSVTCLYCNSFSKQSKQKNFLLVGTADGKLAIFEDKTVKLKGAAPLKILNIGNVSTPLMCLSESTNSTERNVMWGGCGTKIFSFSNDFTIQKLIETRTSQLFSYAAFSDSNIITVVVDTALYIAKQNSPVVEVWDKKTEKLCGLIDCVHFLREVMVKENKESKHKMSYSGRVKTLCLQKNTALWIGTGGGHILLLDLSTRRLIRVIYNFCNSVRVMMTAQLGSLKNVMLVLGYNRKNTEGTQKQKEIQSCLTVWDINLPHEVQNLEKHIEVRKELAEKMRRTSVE
MYLK, sequence (Q15746 whole entry): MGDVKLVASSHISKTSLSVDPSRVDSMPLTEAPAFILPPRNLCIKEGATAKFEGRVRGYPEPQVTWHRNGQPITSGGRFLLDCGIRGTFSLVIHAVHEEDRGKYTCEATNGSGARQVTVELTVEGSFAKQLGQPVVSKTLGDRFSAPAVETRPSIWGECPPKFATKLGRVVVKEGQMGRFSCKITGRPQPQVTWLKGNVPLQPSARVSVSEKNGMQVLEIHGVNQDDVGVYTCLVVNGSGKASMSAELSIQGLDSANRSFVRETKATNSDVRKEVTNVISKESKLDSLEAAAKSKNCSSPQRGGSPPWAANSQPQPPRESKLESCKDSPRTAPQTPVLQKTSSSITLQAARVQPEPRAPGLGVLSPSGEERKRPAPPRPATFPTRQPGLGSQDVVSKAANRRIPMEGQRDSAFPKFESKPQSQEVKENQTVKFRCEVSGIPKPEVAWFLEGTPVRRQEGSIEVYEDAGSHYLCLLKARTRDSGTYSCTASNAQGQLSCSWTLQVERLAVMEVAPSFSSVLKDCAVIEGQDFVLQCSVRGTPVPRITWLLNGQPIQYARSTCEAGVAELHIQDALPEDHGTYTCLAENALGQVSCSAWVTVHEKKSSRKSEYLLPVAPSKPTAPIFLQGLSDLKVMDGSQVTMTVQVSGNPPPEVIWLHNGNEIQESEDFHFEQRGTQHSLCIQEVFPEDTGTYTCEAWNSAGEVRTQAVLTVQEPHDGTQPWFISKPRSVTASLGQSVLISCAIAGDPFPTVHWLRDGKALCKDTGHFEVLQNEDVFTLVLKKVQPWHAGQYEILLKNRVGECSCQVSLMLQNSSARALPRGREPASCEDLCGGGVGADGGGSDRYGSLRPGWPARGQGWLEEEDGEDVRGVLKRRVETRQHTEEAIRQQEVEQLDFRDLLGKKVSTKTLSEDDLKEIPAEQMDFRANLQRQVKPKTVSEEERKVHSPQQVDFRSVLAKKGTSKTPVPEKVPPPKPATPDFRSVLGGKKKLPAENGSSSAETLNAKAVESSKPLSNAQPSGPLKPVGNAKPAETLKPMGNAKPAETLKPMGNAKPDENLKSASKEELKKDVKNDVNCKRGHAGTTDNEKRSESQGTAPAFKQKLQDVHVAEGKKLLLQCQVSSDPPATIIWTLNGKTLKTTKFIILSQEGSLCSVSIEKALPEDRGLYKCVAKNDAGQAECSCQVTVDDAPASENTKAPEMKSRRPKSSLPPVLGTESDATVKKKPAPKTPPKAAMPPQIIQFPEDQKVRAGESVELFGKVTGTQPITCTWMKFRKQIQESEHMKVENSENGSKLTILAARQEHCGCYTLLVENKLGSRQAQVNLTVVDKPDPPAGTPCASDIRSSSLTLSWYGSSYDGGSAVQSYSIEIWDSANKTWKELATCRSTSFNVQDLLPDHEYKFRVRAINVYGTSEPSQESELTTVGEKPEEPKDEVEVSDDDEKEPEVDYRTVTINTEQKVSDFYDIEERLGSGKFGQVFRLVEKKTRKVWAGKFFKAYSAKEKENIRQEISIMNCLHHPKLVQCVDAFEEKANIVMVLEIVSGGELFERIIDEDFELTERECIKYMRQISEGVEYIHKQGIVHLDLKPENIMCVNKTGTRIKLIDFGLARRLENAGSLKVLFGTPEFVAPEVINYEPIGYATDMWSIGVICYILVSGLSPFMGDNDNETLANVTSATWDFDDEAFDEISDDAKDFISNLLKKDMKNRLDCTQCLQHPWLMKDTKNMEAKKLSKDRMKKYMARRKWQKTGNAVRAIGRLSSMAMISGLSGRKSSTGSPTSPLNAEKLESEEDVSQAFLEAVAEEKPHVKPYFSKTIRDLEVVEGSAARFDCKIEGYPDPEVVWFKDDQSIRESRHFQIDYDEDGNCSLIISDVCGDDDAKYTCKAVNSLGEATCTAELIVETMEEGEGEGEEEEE

Broadly, the IC50 is the concentration needed to halve the response being measured. Take `COc1cccc(Nc2nc(-c3ccccc3)nc3cn[nH]c23)c1` [Example #8, N-(3-methoxyphenyl)-5-phenyl-1H-pyrazolo[4,3-d]pyrimidin-7-amine]: the Ki in test [1] was 10 to 100 nM. In addition, in test [2], the IC50 was under 5000 nM.
On the same counts, the results for `c1cc(Nc2nc(-c3cc[nH]n3)nc3cn[nH]c23)n[nH]1` [Example #45, N,5-di(1H-pyrazol-3-yl)-1H-pyrazolo[4,3-d]pyrimidin-7-amine] are 100 to 1000 nM and under 5000 nM.
Consider `CN1CCC(c2ccc(Nc3nc(-c4cccs4)nc4cn[nH]c34)cc2)CC1` [Example #209, N-(4-(1-methylpiperidin-4-yl)phenyl)-5-(thiophen-2-yl)-1H-pyrazolo[4,3-d]pyrimidin-7-amine], for which the Ki in test [1] was 10 to 100 nM. Further, the IC50 in test [3] lay in the range of 100 to 1000 nM.
As for `O=C1CCCc2ccc(Nc3nc(-c4cccc(C(=O)O)c4)nc4cn[nH]c34)cc2N1` [Example #218, 3-(7-((2-oxo-2,3,4,5-tetrahydro-1H-benzo[b]azepin-8-yl)amino)-1H-pyrazolo[4,3-d]pyrimidin-5-yl)benzoic acid], the Ki in test [1] was 10 to 100 nM. The IC50 in test [3] lay in the range of 100 to 1000 nM.
Turning to `COc1ccc(Nc2nc(-c3ccccc3F)nc3cn[nH]c23)cc1OC` [Example #232, N-(3,4-dimethoxyphenyl)-5-(2-fluorophenyl)-1H-pyrazolo[4,3-d]pyrimidin-7-amine], in test [1], the Ki was under 10 nM. Also, the IC50 in test [3] was in the range of 100 to 1000 nM.
On the same counts, the results for `Fc1ccccc1-c1nc(Nc2ccc(N3CCOCC3)cc2)c2[nH]ncc2n1` [Example #233, 5-(2-fluorophenyl)-N-(4-morpholinophenyl)-1H-pyrazolo[4,3-d]pyrimidin-7-amine] are under 10 nM and 100 to 1000 nM.
On the same counts, the results for `COc1ccc(Nc2nc(-c3cccc(F)c3)nc3cn[nH]c23)cc1OC` [Example #234, N-(3,4-dimethoxyphenyl)-5-(3-fluorophenyl)-1H-pyrazolo[4,3-d]pyrimidin-7-amine] are under 10 nM and 100 to 1000 nM.
Turning to `Fc1cccc(-c2nc(Nc3ccc(N4CCOCC4)cc3)c3[nH]ncc3n2)c1` [Example #235, 5-(3-fluorophenyl)-N-(4-morpholinophenyl)-1H-pyrazolo[4,3-d]pyrimidin-7-amine], the Ki in test [1] was under 10 nM. The IC50 in test [3] lay in the range of 10 to 100 nM.
Take `CC(=O)N1CCN(c2ccc(Nc3nc(-c4cccc(S(N)(=O)=O)c4)nc4cn[nH]c34)cc2)CC1` [Example #237, 3-(7-((4-(4-acetylpiperazin-1-yl)phenyl)amino)-1H-pyrazolo[4,3-d]pyrimidin-5-yl)benzenesulfonamide]: in test [1], the Ki was under 10 nM. Also, the IC50 in test [3] was 100 to 1000 nM.
On the same counts, the results for `NS(=O)(=O)c1cccc(-c2nc(Nc3ccc(N4CCOCC4)cc3)c3[nH]ncc3n2)c1` [Example #239, 3-(7-((4-morpholinophenyl)amino)-1H-pyrazolo[4,3-d]pyrimidin-5-yl)benzenesulfonamide] are under 10 nM and 100 to 1000 nM.
On the same counts, the results for `CS(=O)(=O)c1cccc(-c2nc(Nc3ccc(N4CCOCC4)cc3)c3[nH]ncc3n2)c1` [Example #251, 5-(3-(methylsulfonyl)phenyl)-N-(4-morpholinophenyl)-1H-pyrazolo[4,3-d]pyrimidin-7-amine] are under 10 nM and 100 to 1000 nM.
On the same counts, the results for `O=C1CCc2ccc(Nc3nc(-c4cnc5cc[nH]c5c4)nc4cn[nH]c34)cc2N1` [Example #257, 7-((5-(1H-pyrrolo[3,2-b]pyridin-6-yl)-1H-pyrazolo[4,3-d]pyrimidin-7-yl)amino)-3,4-dihydroquinolin-2(1H)-one] are under 10 nM and 100 to 1000 nM.
In the case of `CNS(=O)(=O)c1cccc(Nc2nc(-c3cccs3)nc3cn[nH]c23)c1` [Example #265, N-methyl-3-((5-(thiophen-2-yl)-1H-pyrazolo[4,3-d]pyrimidin-7-yl)amino)benzenesulfonamide], the Ki in test [1] was 100 to 1000 nM. In test [3], the half-maximal inhibitory concentration (IC50) lay within 100 to 1000 nM.
`O=C1CCc2ccc(Nc3nc(-c4ccc5cn[nH]c5c4)nc4cn[nH]c34)cc2N1` [Example #269, 7-((5-(1H-indazol-6-yl)-1H-pyrazolo[4,3-d]pyrimidin-7-yl)amino)-3,4-dihydroquinolin-2(1H)-one]: in test [1], the Ki was under 10 nM. The IC50 in test [3] was under 10 nM.
As for `Fc1ccc(-c2nc(Nc3ccc(N4CCOCC4)cc3)c3[nH]ncc3n2)cc1` [Example #271, 5-(4-fluorophenyl)-N-(4-morpholinophenyl)-1H-pyrazolo[4,3-d]pyrimidin-7-amine], the Ki in test [1] is 10 to 100 nM. For the same molecule, in test [3], the IC50 fell in the range of 100 to 1000 nM.
As to `CN1CCN(C2CCN(c3ccc(Nc4nc(-c5ccccc5F)nc5cn[nH]c45)cc3)CC2)CC1` [Example #278, 5-(2-fluorophenyl)-N-(4-(4-(4-methylpiperazin-1-yl)piperidin-1-yl)phenyl)-1H-pyrazolo[4,3-d]pyrimidin-7-amine], the Ki in test [1] is under 10 nM. Further, the IC50 in test [3] lay within 100 to 1000 nM.
For the molecule `COc1ccc(Nc2nc(-c3c(F)cccc3F)nc3cn[nH]c23)cc1OC` [Example #281, 5-(2,6-difluorophenyl)-N-(3,4-dimethoxyphenyl)-1H-pyrazolo[4,3-d]pyrimidin-7-amine], the Ki in test [1] is under 10 nM. For the same molecule, in test [3], the IC50 was 100 to 1000 nM.
On to `Fc1cccc(F)c1-c1nc(Nc2ccc(N3CCOCC3)cc2)c2[nH]ncc2n1` [Example #282, 5-(2,6-difluorophenyl)-N-(4-morpholinophenyl)-1H-pyrazolo[4,3-d]pyrimidin-7-amine], for which the Ki in test [1] was 10 to 100 nM. The IC50 in test [3] lay in the range of 100 to 1000 nM.
On the same counts, the results for `Fc1cccc(F)c1-c1nc(Nc2ccc(N3CCN(C4CC4)CC3)cc2)c2[nH]ncc2n1` [Example #283, N-(4-(4-cyclopropylpiperazin-1-yl)phenyl)-5-(2,6-difluorophenyl)-1H-pyrazolo[4,3-d]pyrimidin-7-amine] are 10 to 100 nM and 100 to 1000 nM.
For `Fc1cc(Nc2nc(-c3cccs3)nc3cn[nH]c23)ccc1N1CCOCC1` [Example #296, N-(3-fluoro-4-morpholinophenyl)-5-(thiophen-2-yl)-1H-pyrazolo[4,3-d]pyrimidin-7-amine], the Ki in test [1] is under 10 nM. The IC50 in test [3] fell in the range of 100 to 1000 nM.
On the same counts, the results for `CN1CCN(C2CCN(C(=O)c3ccc(Nc4nc(-c5cccs5)nc5cn[nH]c45)cc3)CC2)CC1` [Example #297, (4-(4-methylpiperazin-1-yl)piperidin-1-yl)(4-((5-(thiophen-2-yl)-1H-pyrazolo[4,3-d]pyrimidin-7-yl)amino)phenyl)methanone] are under 10 nM and 10 to 100 nM.
On the same counts, the results for `COc1ccc(Nc2nc(-c3ccc4c(c3)NCCO4)nc3cn[nH]c23)cc1OC` [Example #300, 5-(3,4-dihydro-2H-benzo[b][1,4]oxazin-6-yl)-N-(3,4-dimethoxyphenyl)-1H-pyrazolo[4,3-d]pyrimidin-7-amine] are under 10 nM and 100 to 1000 nM.
Take `c1cc(N2CCOCC2)ccc1Nc1nc(-c2ccc3c(c2)NCCO3)nc2cn[nH]c12` [Example #301, 5-(3,4-dihydro-2H-benzo[b][1,4]oxazin-6-yl)-N-(4-morpholinophenyl)-1H-pyrazolo[4,3-d]pyrimidin-7-amine]: the Ki in test [1] was 10 to 100 nM. In addition, in test [3], the half-maximal inhibitory concentration (IC50) was 100 to 1000 nM.
On the same counts, the results for `Cc1nc2cc(Nc3nc(-c4ccc5c(c4)NCCO5)nc4cn[nH]c34)ccc2[nH]1` [Example #302, 5-(3,4-dihydro-2H-benzo[b][1,4]oxazin-6-yl)-N-(2-methyl-1H-benzo[d]imidazol-5-yl)-1H-pyrazolo[4,3-d]pyrimidin-7-amine] are under 10 nM and 100 to 1000 nM.
On the same counts, the results for `CN1Cc2ccc(Nc3nc(-c4cccs4)nc4cn[nH]c34)cc2C1` [Example #303, N-(2-methylisoindolin-5-yl)-5-(thiophen-2-yl)-1H-pyrazolo[4,3-d]pyrimidin-7-amine] are under 10 nM and 100 to 1000 nM.
`c1csc(-c2nc(Nc3ccc4c(c3)COC4)c3[nH]ncc3n2)c1` [Example #304, N-(1,3-dihydroisobenzofuran-5-yl)-5-(thiophen-2-yl)-1H-pyrazolo[4,3-d]pyrimidin-7-amine]: in test [1], the Ki is under 10 nM. For the same molecule, the IC50 in test [3] was 100 to 1000 nM.
Turning to `CN(C)Cc1ccc(Nc2nc(-c3ccccc3F)nc3cn[nH]c23)cc1` [Example #311, N-(4-((dimethylamino)methyl)phenyl)-5-(2-fluorophenyl)-1H-pyrazolo[4,3-d]pyrimidin-7-amine], in test [1], the Ki is 10 to 100 nM. Moreover, the IC50 in test [3] was 100 to 1000 nM.
